The source made the active and inactive calls. The calls are words filed in the database; no cut-off is given here.
Columns and labels:
N2a [1] = experiment: Inhibition of Amyloid beta (25 to 35)-induced oxidative damage in mouse Neuro2a cells assessed as reduction in ROS production by measuring reduction in fluorescence intensity at 50 ug/ml pretreated for 2 hrs followed by amyloid beta (25 to 35) addition and measured after 24 hrs by DCFH-DA staining -based spectrofluorimetric assay; format: functional, cell-based; details: dose 50.0 µg/ml, time 26.0 hrs
N2a [2] = experiment: (§1) Inhibition of Amyloid beta (25 to 35)-induced macromolecular damage in mouse Neuro2a cells assessed as reduction in lipid peroxidation by measuring MDA content at 50 ug/ml pretreated for 2 hrs followed by amyloid beta (25 to 35) addition and measured after 24 hrs per mg protein (reference value: 106.4 +/-1.9 nmol); format: functional; details: dose 50 µg/ml; time 26 hrs
N2a [3] = experiment: as §1, with “protein oxidation” for “lipid peroxidation”, “protein carbonyl” for “MDA”, “44.06 +/- 1.02 […])” for “106.4 +/-1.9 nmol)”; format: functional; details: dose 50 µg/ml; time 26 hrs
N2a [4] = experiment: Inhibition of Amyloid beta (25 to 35)-induced mitochondrial membrane potential loss in mouse Neuro2a cells at 50 ug/ml pretreated for 2 hrs followed by amyloid beta (25 to 35) addition and measured after 24 hrs by rhodamine 123 staining based fluorescent spectrophotometry; format: functional, cell-based; details: dose 50.0 µg/ml, time 26.0 hrs
N2a [5] = experiment: Neuroprotective activity against Amyloid beta (25 to 35)-induced toxicity in mouse Neuro2a cells assessed as non-apoptotic viable cells at 50 ug/ml pretreated for 2 hrs followed by amyloid beta (25 to 35) addition and measured after 24 hrs by AO/EtBr dual staining based fluorescence microscopy (reference value: 53.4 +/-3.88%); format: functional; details: dose 50 µg/ml; time 26 hrs
N2a [6] = experiment: Inhibition of Amyloid beta (25 to 35)-induced apoptosis in mouse Neuro2a cells assessed as Bax/Bcl2 ratio at 50 ug/ml pretreated for 2 hrs followed by amyloid beta (25 to 35) addition and measured after 24 hrs by Western blot analysis (reference value: 1.09 +/- 0.018); format: functional; details: dose 50 µg/ml; time 26 hrs

`COc1cc2c(cc1OC)C(=O)C(CC1CCN(Cc3ccccc3)CC1)C2` (stereo unspecified) [DONEPEZIL] was tested, and the inhibition (N2a [1]) was “Active”, the Activity (N2a [2]) was 56.6 nmol and the Activity (N2a [3]) was 25.1 nmol/mg. For the same molecule, the inhibition (N2a [4]) was “Active”, the Activity (N2a [5]) was 79% and the Ratio (N2a [6]) was 0.57.
